Data as given in patent US11802120B2, “Fused cyclic urea derivatives as CRHR2 antagonist” (RaQualia Pharma Inc., priority 2018, dated 2023).

Molecular target: T1, human CRHR2-alpha (Homo sapiens, UniProt Q13324)
T1 sequence (Q13324 1-411): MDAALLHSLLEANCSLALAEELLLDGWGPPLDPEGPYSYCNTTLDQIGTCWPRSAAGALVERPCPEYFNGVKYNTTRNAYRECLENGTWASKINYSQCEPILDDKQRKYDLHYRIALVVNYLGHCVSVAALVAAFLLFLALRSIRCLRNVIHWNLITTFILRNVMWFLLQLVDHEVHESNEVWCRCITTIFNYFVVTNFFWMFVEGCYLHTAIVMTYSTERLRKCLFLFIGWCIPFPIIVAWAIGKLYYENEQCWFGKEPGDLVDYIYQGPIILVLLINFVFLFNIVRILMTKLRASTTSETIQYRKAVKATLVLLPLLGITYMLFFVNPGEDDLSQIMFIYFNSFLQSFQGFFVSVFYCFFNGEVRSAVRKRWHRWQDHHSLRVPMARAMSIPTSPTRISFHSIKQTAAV
Experiment: cAMP functional assay for human CRHR2 (LANCE Ultra cAMP, TR-FRET)
Format: cell-based
Conditions: CHO-K1 cells expressing human CRHR2-alpha, agonist human urocortin2 at EC80, cAMP; read-out: IC50 against CRHR2
In short: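 CHO-K1 stable lines; 4,000 cells/well; compound 30 min, 25° C; EC80 agonist (human urocortin2 → CRHR2, CRF → CRHR1) 30 min, 25° C; buffer HBSS/0.1% BSA/0.5 mM IBMX/5 mM Hepes pH 7.4; Eu-cAMP tracer + ULight antibody 60 min; TR-FRET read; IC50 from % inhibition curves.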

Compound	IC50 [nM]
Cc1ncc(Cl)cc1C(=O)N[C@H]1CC[C@H](Cn2c(=O)n(-c3ccc4c(CO)noc4c3)c3ccccc32)CC1 [Example 261, 5-chloro-N-((1r,4r)-4-((3-(3-(hydroxymethyl)benzo[d]isoxazol-6-yl)-2-oxo-2,3-dihydro-1H-benzo[d]imidazol-1-yl)methyl)cyclohexyl)-2-methylnicotinamide]	< 300
Cc1ncc(Cl)cc1C(=O)N[C@H]1CC[C@H](Cn2c(=O)n(-c3ccncc3Cl)c3ccccc32)CC1 [Example 262, 5-chloro-N-((1r,4r)-4-((3-(3-chloropyridin-4-yl)-2-oxo-2,3-dihydro-1H-benzo[d]imidazol-1-yl)methyl)cyclo-hexyl)-2-methylnicotinamide]	< 300
Cc1ncc(Cl)cc1C(=O)N[C@H]1CC[C@H](Cn2c(=O)n(-c3ccc4oc(N)nc4c3)c3ccccc32)CC1 [Example 263, N-((1r,4r)-4-((3-(2-aminobenzo[d]oxazol-5-yl)-2-oxo-2,3-dihydro-1H-benzo[d]imidazol-1-yl)methyl)cyclohexyl)-5-chloro-2-methylnicotinamide]	< 300
Cc1ncc(Cl)cc1C(=O)N[C@H]1CC[C@H](Cn2c(=O)n(-c3ccc4ocnc4c3)c3ccccc32)CC1 [Example 264, N-((1r,4r)-4-((3-(benzo[d]oxazol-5-yl)-2-oxo-2,3-dihydro-1H-benzo[d]imidazol-1-yl)methyl)cyclo-hexyl)-5-chloro-2-methyl-nicotinamide]	< 300
Cc1ccc(-n2c(=O)n(C[C@H]3CC[C@H](NC(=O)c4cc(Cl)cnc4C(F)(F)F)CC3)c3ccccc32)cn1 [Example 265, 5-chloro-N-((1r,4r)-4-((3-(6-methylpyridin-3-yl)-2-oxo-2,3-dihydro-1H-benzo [d]imidazol-1-yl)methyl)cyclohexyl)-2-(trifluoro-methyl)nicotinamide]	< 300
Cc1ccc(-n2c(=O)n(C[C@H]3CC[C@H](NC(=O)c4cc(Cl)ccc4C4CC4)CC3)c3ccccc32)cn1 [Example 266, 5-chloro-2-cyclopropyl-N-((1r,4r)-4-((3-(6-methyl-pyridin-3-yl)-2-oxo-2,3-dihydro-1H-benzo[d]imidazol-1-yl)methyl)cyclo-hexyl)benzamide]	< 300
Cc1ccc(-n2c(=O)n(C[C@H]3CC[C@H](NC(=O)c4cc(Cl)ccc4C)CC3)c3ccccc32)cn1 [Example 267, 5-chloro-2-methyl-N-((1r,4r)-4-((3-(6-methyl-pyridin-3-yl)-2-oxo-2,3-dihydro-1H-benzo[d]imidazol-1-yl)methyl)cyclo-hexyl)benzamide]	< 300
Cc1ccc(C(F)(F)F)c(C(=O)N[C@H]2CC[C@H](Cn3c(=O)n(-c4ccc(C)nc4)c4ccccc43)CC2)c1 [Example 268, 5-methyl-N-((1r,4r)-4-((3-(6-methylpyridin-3-yl)-2-oxo-2,3-dihydro-1H-benzo[d]imidazol-1-yl)methyl)cyclohexyl)-2-(trifluoromethyl)benzamide]	< 300
Cc1ccc(-n2c(=O)n(C[C@H]3CC[C@H](NC(=O)c4cc(Cl)ccc4Cl)CC3)c3ccccc32)cn1 [Example 269, 2,5-dichloro-N-((1r,4r)-4-((3-(6-methylpyridin-3-yl)-2-oxo-2,3-dihydro-1H-benzo[d]imidazol-1-yl)methyl)cyclohexyl)benzamide]	< 300
Cc1ccc(-n2c(=O)n(C[C@H]3CC[C@H](NC(=O)c4cc(Cl)ccc4C(F)(F)F)CC3)c3ccccc32)cn1 [Example 270, 5-chloro-N-((1r,4r)-4-((3-(6-methylpyridin-3-yl)-2-oxo-2,3-dihydro-1H-benzo[d]imidazol-1-yl)methyl)cyclo-hexyl)-2-(trifluoromethyl) benzamide]	< 300
Cc1ncc(Cl)cc1C(=O)N[C@H]1CC[C@H](Cn2c(=O)n(-c3cnc4[nH]nc(C)c4c3)c3ccccc32)CC1 [Example 271, 5-chloro-2-methyl-N-((1r,4r)-4-((3-(3-methyl-1H-pyrazolo[3,4-b]pyridin-5-yl)-2-oxo-2,3-dihydro-1H-benzo[d]imidazol-1-yl)methyl)cyclohexyl)nicotinamide]	< 300
Cc1ncc(Cl)cc1C(=O)N[C@H]1CC[C@H](Cn2c(=O)n(-c3ccn4ccnc4c3)c3ccccc32)CC1 [Example 272, 5-chloro-N-((1r,4r)-4-((3-(imidazo[1,2-a]pyridin-7-yl)-2-oxo-2,3-dihydro-1H-benzo [d]imidazol-1-yl)methyl)cyclohexyl)-2-methyl-nicotinamide]	< 300
Cc1ncc(Cl)cc1C(=O)N[C@H]1CC[C@H](Cn2c(=O)n(-c3cc(N(C)C)ccc3C#N)c3ccccc32)CC1 [Example 273, 5-chloro-N-((1r,4r)-4-((3-(2-cyano-5-(dimethylamino)phenyl)-2-oxo-2,3-dihydro-1H-benzo[d]imidazol-1-yl)methyl)cyclohexyl)-2-methylnicotinamide]	< 300
Cc1ncc(Cl)cc1C(=O)N[C@H]1CC[C@H](Cn2c(=O)n(-c3ccc4cncn4c3)c3ccccc32)CC1 [Example 274, 5-chloro-N-((1r,4r)-4-((3-(imidazo[1,5-a]pyridin-6-yl)-2-oxo-2,3-dihydro-1H-benzo [d]imidazol-1-yl)methyl)cyclohexyl)-2-methylnico-tinamide]	< 300
Cc1ncc(Cl)cc1C(=O)N[C@H]1CC[C@H](Cn2c(=O)n(-c3cnc4c(c3)nnn4C)c3ccccc32)CC1 [Example 275, 5-chloro-2-methyl-N-((1r,4r)-4-((3-(3-methyl-3H-[1,2,3]triazolo[4,5-b]pyridin-6-yl)-2-oxo-2,3-dihydro-1H-benzo [d]imidazol-1-yl)methyl)cyclohexyl)nicotinamide]	< 300
Cc1ncc(Cl)cc1C(=O)N[C@H]1CC[C@H](Cn2c(=O)n(-c3ccc4c(c3)nnn4CCO)c3ccccc32)CC1 [Example 276, 5-chloro-N-((1r,4r)-4-((3-(1-(2-hydroxyethyl)-1H-benzo[d][1,2,3]triazol-5-yl)-2-oxo-2,3-dihydro-1H-benzo[d]imidazol-1-yl)methyl)cyclohexyl)-2-methylnicotinamide]	< 300
CCn1c(=O)oc2cc(-n3c(=O)n(C[C@H]4CC[C@H](NC(=O)c5cc(Cl)cnc5C)CC4)c4ccccc43)cnc21 [Example 277, 5-chloro-N-((1r,4r)-4-((3-(3-ethyl-2-oxo-2,3-dihydro-oxazolo[4,5-b]pyridin-6-yl)-2-oxo-2,3-dihydro-1H-benzo [d]imidazol-1-yl)methyl)cyclohexyl)-2-methylnico-tinamide]	< 300
Cc1ncc(Cl)cc1C(=O)N[C@H]1CC[C@H](Cn2c(=O)n(-c3ccc4ncnn4c3)c3ccccc32)CC1 [Example 278, N-((1r,4r)-4-((3-([1,2,4]triazolo [1,5-a]pyridin-6-yl)-2-oxo-2,3-dihydro-1H-benzo[d]imidazol-1-yl)methyl)cyclohexyl)-5-chloro-2-methylnicotinamide]	< 300
Cc1ncc(Cl)cc1C(=O)N[C@H]1CC[C@H](Cn2c(=O)n(-c3ccc(C4CCC4)nc3)c3ccccc32)CC1 [Example 279, 5-chloro-N-((1r,4r)-4-((3-(6-cyclobutylpyridin-3-yl)-2-oxo-2,3-dihydro-1H-benzo[d]imidazol-1-yl)methyl)cyclohexyl)-2-methylnicotinamide]	< 300
